Test results from ChEMBL document CHEMBL4414610, “Constituents from the Leaves of Tetraena mongolica and Their Protective Activity in HEK 293t Cells Damaged by CdCl2” (J Nat Prod, 2019).
pIC50: −log10 of the molar value. Calls of active or inactive are those of the source. The rule behind the calls is not given here.

How the values were obtained:
[1] = test system: HEK-293T; assay: Cytoprotective activity against CdCl2-induced cell death in human HEK293T cells at 25 to 100 uM preincubated for 2 hrs followed by CdCl2 treatment and measured after 12 hrs by MTT assay; format: functional, cell-based
[2] = test system: HEK-293T; assay: Cytoprotective activity against CdCl2-induced cell death in human HEK293T cells assessed as increase in cell viability preincubated for 2 hrs followed by CdCl2 treatment and measured after 48 hrs by MTT assay; format: functional, cell-based

Row | SMILES | Activity [1] | pIC50 [2]
1 | COc1cc(-c2oc3cc(O)cc(O)c3c(=O)c2O[C@@H]2O[C@H](CO[C@@H]3O[C@@H](C)[C@H](O)[C@@H](O)[C@H]3O)[C@@H](O)[C@H](O)[C@H]2O)ccc1O | Active | 
2 | CC1=CC(=O)CC(C)(C)[C@@]1(O)/C=C/[C@@H](C)O[C@@H]1O[C@H](CO)[C@@H](O)[C@H](O)[C@H]1O [6S,9R-ROSEOSIDE] | Active | 4.25
3 | CC1=CC(=O)CC(C)(C)[C@@]1(O)/C=C/[C@@H](C)O[C@@H]1O[C@H](CO)[C@@H](O)[C@H](OS(=O)(=O)O)[C@H]1O | Active | 
4 | C[C@H](CCc1ccc(O)cc1)O[C@@H]1O[C@H](CO)[C@@H](O)[C@H](OS(=O)(=O)O)[C@H]1O | Active | 
5 | O=c1c(O[C@@H]2O[C@H](CO)[C@@H](O)[C@H](O)[C@H]2O)c(-c2ccc(O)c(O)c2)oc2cc(O)cc(O)c12 | Active | 
6 | C[C@@H]1O[C@@H](OC[C@H]2O[C@@H](Oc3c(-c4ccc(O)c(O)c4)oc4cc(O)cc(O)c4c3=O)[C@H](O)[C@@H](O)[C@@H]2O)[C@H](O)[C@H](O)[C@H]1O | Active | 
7 | OC[C@H]1O[C@@H](OCc2ccccc2)[C@H](O)[C@@H](O)[C@@H]1O | Active | 4.10
8 | C[C@H](/C=C/[C@@]1(O)[C@H](C)CC(=O)CC1(C)C)O[C@@H]1O[C@H](CO)[C@@H](O)[C@H](OS(=O)(=O)O)[C@H]1O | Active | 
